According to US20260306476A1, “ANTIBACTERIAL COMPOUND PBT2” (priority 2022, published 2026):
Values after ≈ are worked out from the molar mass of the structure shown. “Also recorded” adds a separate entry of the source.

Assays:
[1] = tested on: Neisseria gonorrhoeae ATCC49226; assay: MIC of PBT2 and comparators against CLSI reference strain; format: cell-based
Text: 13 multidrug resistant WHO strains of Neisseria gonorrhoeae were selected to cover antimicrobial resistance phenotypes to all the antibiotics currently used.

[2] = tested on: non-typeable Haemophilus influenzae (NTHi) 2019; assay: MIC of PBT2 alone (broth); format: cell-based
Experimental: (§1) The MIC of PBT2 against five non-typeable Haemophilus influenzae (NTHi) strains was determined (CLSI. 2022. Performance Standards for Antimicrobial Susceptibility Testing, 32nd Edition. Clinical and Laboratory Standards Institute).

[3] = tested on: non-typeable Haemophilus influenzae (NTHi) 723; assay: MIC of PBT2 alone (broth); format: cell-based
Experimental: as §1

[4] = tested on: non-typeable Haemophilus influenzae (NTHi) 86-028NP; assay: MIC of PBT2 alone (broth); format: cell-based
Experimental: as §1

[5] = tested on: non-typeable Haemophilus influenzae (NTHi) ATCC49766; assay: MIC of PBT2 alone (broth); format: cell-based
Experimental: as §1

[6] = tested on: non-typeable Haemophilus influenzae (NTHi) R2866; assay: MIC of PBT2 alone (broth); format: cell-based
Experimental: as §1

[7] = tested on: Campylobacter jejuni 81-176; assay: MIC of PBT2 alone (broth); format: cell-based; conditions: 81176
Experimental: (§2) The MIC of PBT2 against three Campylobacter jejuni strains was determined. All strains tested were sensitive to PBT2.

[8] = tested on: Campylobacter jejuni ATCC 33560; assay: MIC of PBT2 alone (broth); format: cell-based; conditions: ATCC33560
Experimental: as §2

[9] = tested on: Campylobacter jejuni NCTC 11168; assay: MIC of PBT2 alone (broth); format: cell-based; conditions: NCTC11168
Experimental: as §2

Campylobacter jejuni = assay: Sensitivity across Campylobacter jejuni strains; format: cell-based; conditions: all strains tested
Experimental: as §2

[10] = tested on: Helicobacter pylori CH428; assay: MIC of PBT2 alone (agar); format: cell-based
Helicobacter pylori = assay: Sensitivity across Helicobacter pylori strains; format: cell-based; conditions: strains tested
Experimental: The MIC of PBT2 against four Helicobacter pylori 26695 strains was determined. The strains tested were sensitive to PBT2.

[11] = tested on: Neisseria gonorrhoeae WHO Z; assay: Time-kill assay; format: cell-based; conditions: PBT2 alone at 0.313 mg/L (MIC)
Text: FIG. 1: Time-kill curves of Neisseria gonorrhoeae WHO Z in GC broth with or without PBT2. Error bars indicate standard deviation from 3 biological replicates.

Neisseria gonorrhoeae = assay: Antibiotic resistance development test over 30 days; format: cell-based; conditions: 30 days of daily subculture; sub-MIC PBT2 (0.156 mg/L)
Experimental: FIG. 2: Antibiotic resistance development assay of PBT2.
Resistance development was tested over a 30 day period with PBT2 and using Kanamycin as a control.

[12] = tested on: Neisseria gonorrhoeae strain WHO Z; assay: MIC of Triton X-100 with/without PBT2; format: cell-based; conditions: 0.156 mg/L (sub-MIC) PBT2
Text: Without wishing to be bound by theory, the inventors hypothesise that this may due to the fact PBT2 is a derivative of the iron chelator clioquinol and PBT2 has the capacity to chelate a range of heavy metals including iron. Genes encoding metal homeostasis proteins (blue dots) are presented in the volcano plot (FIG. 3). Metal homeostasis was previously identified as a crucial feature of gonococcal biology, and therefore it is postulated this may be an “Achilles' heel” with respect to Neisseria gonorrhoeae ionophore sensitivity. […] MpeR is an iron-repressed, AraC-like protein that regulates the mtr efflux locus (involved in antimicrobial susceptibility) in Neisseria gonorrhoeae. Up-regulation of mpeR (e. g. by PBT2) down-regulates MtrF and, in turn, would increase Neisseria gonorrhoeae sensitivity to the antimicrobial detergent, Triton X-100 (22). […] Thus, without wishing to be bound to theory, the inventors hypothesise that PBT2 may influence bacterial iron homeostasis and trigger general defence mechanisms, such as Mtr-mediated antimicrobial efflux, but the Mtr-system may be unable to protect against PBT2.

[13] = tested on: Neisseria gonorrhoeae strain WHO Z; assay: Ex vivo Neisseria gonorrhoeae infection of human cervical (Pex) cells; format: cell-based
Text: FIG. 4: Chart indicating PBT2 can cure Neisseria gonorrhoeae infection of human cervical (Pex) cells. […] Ceftriaxone (CRO, positive control) is currently recommended for gonorrhoea treatment. Veh—0.1% DMSO vehicle control; UT—untreated; * p<0.0001 versus vehicle for CRO or PBT2 treatment.
(§3) To assess the ability of PBT2 to cure an established gonococcal infection in a human ex vivo system, primary human cervical epithelial (Pex) cells were challenged with Neisseria gonorrhoeae strain WHO Z for 90 min and then treated with 0.1% DMSO (vehicle control), PBT2 (0.016 mg/L to 4.695 mg/L), or ceftriaxone (0.5 mg/L, positive control) for 24 h. Viable gonococci were then enumerated. […] PBT2-induced Pex cell cytotoxicity was not observed during the assay.

[14] = tested on: primary human cervical epithelial (Pex) cells; assay: PBT2-induced Pex cell cytotoxicity; format: cell-based; conditions: PBT2 0.016 to 4.695 mg/L; 24 h
Experimental: as §3

[15] = Plasma drug level of PBT2 in clinical trial (NCT02249728); format: in vivo, human; conditions: 250 mg/day; MDR Neisseria gonorrhoeae
[16] = cited from earlier work
[17] = tested on: methicillin-resistant Staphylococcus aureus (MRSA); conditions: in the absence of an antibiotic; cited from earlier work
[18] = tested on: Neisseria meningitidis Z2491 (A); assay: MIC of PBT2 (broth and agar)
[19] = tested on: Neisseria meningitidis PMC1 (X); assay: MIC of PBT2 (broth and agar)
[20] = tested on: Neisseria meningitidis PMC19 (W); assay: MIC of PBT2 (broth and agar)
Neisseria meningitidis = assay: MIC / susceptibility across Neisseria meningitidis strains; conditions: all strains tested; for MIC: Neisseria meningitidis

## CN(C)Cc1ccc2c(Cl)cc(Cl)c(O)c2n1 [PBT2, 5,7-dichloro-2-[(dimethylamino)methyl]quinolin-8-ol]
[1]; ATCC49226, ATCC49226, agar
  MIC: 0.625 µg/mL
[1]; ATCC49226, ATCC49226, broth
  MIC: 0.312 µg/mL
[2]
  MIC: 2.5 µg/mL
[3]
  MIC: 1.25 µg/mL
[4]
  MIC: 2.5 µg/mL
[5]
  MIC: 0.312 µg/mL
[6]
  MIC: 2.5 µg/mL
[7]
  MIC: 0.156 µg/mL
[8]
  MIC: 0.156 µg/mL
[9]
  MIC: 0.313 µg/mL
Campylobacter jejuni
  sensitivity: sensitive
[10]
  MIC: 2.5 µg/mL
Helicobacter pylori
  sensitivity: sensitive
[11]
  time in which antibacterial activity occurred: ≤ 3 h
Neisseria gonorrhoeae
  antibiotic resistance development: No antibiotic resistance was observed; also recorded: no visible development of resistance
[12]
  effect on sensitivity to Triton X-100: increased the sensitivity
[13]; 24 h post-treatment, PBT2 0.016 to 4.695 mg/L, FIG. 4
  reduction in Neisseria gonorrhoeae survival: dose-dependent reduction
[13]; >0.157 mg/L PBT2, 24 h
  effectiveness versus ceftriaxone (0.5 mg/L): comparable effectiveness to that observed for the control antibiotic, ceftriaxone
[13]; survival at 24 h, FIG. 4, CRO 0.5 mg/L
  p versus vehicle: < 0.0001
[14]
  PBT2-induced Pex cell cytotoxicity: not observed
[15]
  plasma AUC relative to PBT2 MIC (313 ng/ml): 5 fold
[16]; 250 mg daily for up to 12 months, without serious side effects or withdrawal symptoms
  safety and tolerability: safe and well-tolerated, without serious side effects or withdrawal symptoms
[16]; data from phase II clinical trials
  safety: safe-for-human-use
[17]
  antibacterial activity: neither PBT2 nor zinc alone displayed antibacterial activity which would be suitable to treat an infection
[18]; agar
  MIC: 0.039 µg/mL
[18]; broth
  MIC: 0.156 µg/mL
[19]
  MIC: 0.039 µg/mL
[20]; agar
  MIC: 0.078 µg/mL
[20]; broth
  MIC: 0.156 µg/mL
Neisseria meningitidis; agar
  MIC: 0.039 to 0.156 µg/mL (≈ 0.144 to 0.575 µM)
Neisseria meningitidis; broth
  MIC: 0.156 to 0.625 µg/mL (≈ 0.575 to 2.31 µM)
Neisseria meningitidis
  sensitivity: sensitive
